Data taken from ChEMBL document CHEMBL1201862, “PubChem BioAssay data set” (2004).
Each block holds one compound with its values, some of them ahead of it. The source made the active and inactive calls.

Assays:
Hexokinase HKDC1 = target: T1, Hexokinase HKDC1 (Homo sapiens, UniProt Q2TB90); experiment: HKDC1 hexokinase inhibitors, dose response, biochemical, W721R variant (AID 504729); type: functional
T1 sequence (Q2TB90 whole entry): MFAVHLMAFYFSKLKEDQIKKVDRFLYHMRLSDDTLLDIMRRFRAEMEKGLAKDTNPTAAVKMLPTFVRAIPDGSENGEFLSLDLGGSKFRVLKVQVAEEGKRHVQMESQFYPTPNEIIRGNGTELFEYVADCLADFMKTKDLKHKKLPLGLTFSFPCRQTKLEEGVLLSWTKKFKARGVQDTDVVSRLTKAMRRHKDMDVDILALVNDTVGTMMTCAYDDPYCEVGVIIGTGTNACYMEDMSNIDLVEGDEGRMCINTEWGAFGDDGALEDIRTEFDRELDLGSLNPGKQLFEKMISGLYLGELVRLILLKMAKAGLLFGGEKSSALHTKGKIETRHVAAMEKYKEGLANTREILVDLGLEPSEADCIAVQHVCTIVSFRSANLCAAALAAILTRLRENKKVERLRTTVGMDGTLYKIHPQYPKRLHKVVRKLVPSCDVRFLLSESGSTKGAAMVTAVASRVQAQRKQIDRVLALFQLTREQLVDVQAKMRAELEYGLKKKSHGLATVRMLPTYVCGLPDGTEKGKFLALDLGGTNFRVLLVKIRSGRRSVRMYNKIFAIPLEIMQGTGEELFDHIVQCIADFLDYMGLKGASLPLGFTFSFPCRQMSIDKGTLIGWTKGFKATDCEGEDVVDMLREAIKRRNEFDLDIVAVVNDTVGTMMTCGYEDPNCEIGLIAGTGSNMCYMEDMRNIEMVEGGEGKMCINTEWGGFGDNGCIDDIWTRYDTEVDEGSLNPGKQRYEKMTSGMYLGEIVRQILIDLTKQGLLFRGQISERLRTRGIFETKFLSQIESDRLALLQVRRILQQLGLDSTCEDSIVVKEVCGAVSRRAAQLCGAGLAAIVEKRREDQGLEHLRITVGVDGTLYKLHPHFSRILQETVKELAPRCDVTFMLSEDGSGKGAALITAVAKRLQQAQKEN

[1] = target: T2, Microphthalmia-associated transcription factor (Homo sapiens, UniProt O75030); experiment: TRPM1 promoter luciferase signal decrease, dose response, MITF inhibitor project, cell-based, SK-MEL-5, cherry-picked, set 3 (AID 493073); type: functional
T2 sequence (O75030 whole entry): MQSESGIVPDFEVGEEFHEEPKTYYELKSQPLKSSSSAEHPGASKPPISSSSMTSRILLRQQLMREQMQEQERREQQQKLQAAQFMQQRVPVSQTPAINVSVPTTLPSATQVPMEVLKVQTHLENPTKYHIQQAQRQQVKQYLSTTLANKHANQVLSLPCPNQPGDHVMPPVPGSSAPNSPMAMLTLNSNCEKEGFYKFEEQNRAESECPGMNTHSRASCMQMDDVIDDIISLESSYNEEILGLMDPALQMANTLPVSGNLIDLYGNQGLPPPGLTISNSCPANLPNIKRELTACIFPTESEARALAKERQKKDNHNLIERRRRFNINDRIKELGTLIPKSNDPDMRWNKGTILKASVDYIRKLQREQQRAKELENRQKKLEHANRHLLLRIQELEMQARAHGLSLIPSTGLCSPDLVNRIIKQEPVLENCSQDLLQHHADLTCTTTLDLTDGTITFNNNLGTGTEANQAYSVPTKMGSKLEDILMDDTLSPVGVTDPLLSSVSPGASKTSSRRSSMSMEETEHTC

Vero = Vero cell cytotoxicity, cytotoxicity control for flavivirus capping enzyme inhibitors (AID 588742); type: functional; settings: Chlorocebus sabaeus
Genome polyprotein = Genome polyprotein (dengue virus type 2, UniProt P29990); experiment: Dengue-2 NS5 methyltransferase inhibitors, primary screen, biochemical, confirmation dose response (AID 588689); type: functional
Sequence of Genome polyprotein (P29990 2492-3391 limits assumed): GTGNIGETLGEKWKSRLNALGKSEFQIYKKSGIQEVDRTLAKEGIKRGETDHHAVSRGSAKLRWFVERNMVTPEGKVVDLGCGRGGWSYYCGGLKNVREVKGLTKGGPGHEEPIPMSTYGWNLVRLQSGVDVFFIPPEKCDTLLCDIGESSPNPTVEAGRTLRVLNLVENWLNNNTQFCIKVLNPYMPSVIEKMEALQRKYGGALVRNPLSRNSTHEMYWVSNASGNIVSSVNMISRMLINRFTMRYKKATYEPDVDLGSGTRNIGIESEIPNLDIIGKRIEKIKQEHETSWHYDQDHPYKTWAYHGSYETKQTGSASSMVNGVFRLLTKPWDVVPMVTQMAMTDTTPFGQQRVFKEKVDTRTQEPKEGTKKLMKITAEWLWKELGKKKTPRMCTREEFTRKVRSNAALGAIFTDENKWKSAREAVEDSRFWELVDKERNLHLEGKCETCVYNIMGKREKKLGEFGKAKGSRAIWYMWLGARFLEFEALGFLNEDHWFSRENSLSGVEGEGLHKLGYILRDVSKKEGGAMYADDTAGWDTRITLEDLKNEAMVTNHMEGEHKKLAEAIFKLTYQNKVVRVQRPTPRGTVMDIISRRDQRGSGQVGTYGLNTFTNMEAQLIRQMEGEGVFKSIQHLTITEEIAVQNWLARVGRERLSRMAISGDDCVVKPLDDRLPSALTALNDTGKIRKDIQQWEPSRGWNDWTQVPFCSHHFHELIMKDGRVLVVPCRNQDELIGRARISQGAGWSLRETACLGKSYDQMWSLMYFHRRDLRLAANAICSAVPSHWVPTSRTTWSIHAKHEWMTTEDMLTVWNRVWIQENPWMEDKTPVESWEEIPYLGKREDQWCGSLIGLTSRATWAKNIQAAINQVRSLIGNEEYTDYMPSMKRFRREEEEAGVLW

Caspase-6 = target: T3, Caspase-6 (Homo sapiens, UniProt P55212); experiment: human caspase-6 inhibitors, dose response, biochemical, VEID-R110 fluorescence, cherry-pick (AID 720632)
T3 sequence (P55212 whole entry): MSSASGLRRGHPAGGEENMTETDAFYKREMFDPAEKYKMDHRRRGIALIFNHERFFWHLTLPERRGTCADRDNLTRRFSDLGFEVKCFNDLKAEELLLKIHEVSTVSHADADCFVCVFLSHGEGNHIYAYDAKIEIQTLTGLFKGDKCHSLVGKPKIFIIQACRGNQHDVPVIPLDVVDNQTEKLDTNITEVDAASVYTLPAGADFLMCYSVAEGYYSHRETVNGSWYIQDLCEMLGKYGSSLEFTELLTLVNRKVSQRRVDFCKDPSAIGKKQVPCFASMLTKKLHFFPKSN

[2] = target: T4, Histone-lysine N-methyltransferase NSD2 (Homo sapiens, UniProt O96028); type: biochemical
T4 sequence (O96028 whole entry): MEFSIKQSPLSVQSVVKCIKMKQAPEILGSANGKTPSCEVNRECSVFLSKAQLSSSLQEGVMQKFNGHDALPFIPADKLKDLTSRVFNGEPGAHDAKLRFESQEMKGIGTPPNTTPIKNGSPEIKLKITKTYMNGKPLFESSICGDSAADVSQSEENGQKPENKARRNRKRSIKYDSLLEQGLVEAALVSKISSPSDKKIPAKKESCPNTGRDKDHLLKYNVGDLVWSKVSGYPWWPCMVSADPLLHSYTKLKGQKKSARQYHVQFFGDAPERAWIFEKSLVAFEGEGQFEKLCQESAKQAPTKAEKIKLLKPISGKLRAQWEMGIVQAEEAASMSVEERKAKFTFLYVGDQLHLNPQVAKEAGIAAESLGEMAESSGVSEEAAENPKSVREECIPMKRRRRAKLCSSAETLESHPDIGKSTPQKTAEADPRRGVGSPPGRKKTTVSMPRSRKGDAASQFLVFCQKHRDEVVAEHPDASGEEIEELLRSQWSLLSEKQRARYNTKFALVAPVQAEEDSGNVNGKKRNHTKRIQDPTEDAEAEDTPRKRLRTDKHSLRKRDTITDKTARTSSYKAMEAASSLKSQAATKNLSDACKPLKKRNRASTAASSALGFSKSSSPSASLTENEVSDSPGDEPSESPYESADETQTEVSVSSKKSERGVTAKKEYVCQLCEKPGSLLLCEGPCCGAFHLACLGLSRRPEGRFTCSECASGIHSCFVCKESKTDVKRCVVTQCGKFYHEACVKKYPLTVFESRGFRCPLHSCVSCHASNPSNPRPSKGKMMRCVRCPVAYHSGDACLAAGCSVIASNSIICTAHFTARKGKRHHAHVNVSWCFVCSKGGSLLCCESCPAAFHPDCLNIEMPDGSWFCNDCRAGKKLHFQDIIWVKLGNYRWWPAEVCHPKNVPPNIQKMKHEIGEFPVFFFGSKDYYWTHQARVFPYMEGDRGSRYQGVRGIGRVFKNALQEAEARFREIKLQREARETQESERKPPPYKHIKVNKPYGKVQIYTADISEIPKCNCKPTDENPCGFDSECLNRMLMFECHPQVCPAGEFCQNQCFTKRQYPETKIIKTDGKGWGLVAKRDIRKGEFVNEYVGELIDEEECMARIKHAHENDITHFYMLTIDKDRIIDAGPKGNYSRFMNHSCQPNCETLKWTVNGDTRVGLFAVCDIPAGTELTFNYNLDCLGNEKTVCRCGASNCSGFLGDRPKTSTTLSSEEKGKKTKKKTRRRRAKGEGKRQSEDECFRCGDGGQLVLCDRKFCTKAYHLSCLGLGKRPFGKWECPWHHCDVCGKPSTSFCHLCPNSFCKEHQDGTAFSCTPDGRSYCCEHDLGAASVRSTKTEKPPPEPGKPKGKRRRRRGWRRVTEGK

[3] = target: Tyrosyl-DNA phosphodiesterase 2 (Homo sapiens, UniProt O95551); experiment: human TDP2 enzyme inhibitors, dose response, biochemical, epi absorbance, IC50 (AID 743297)
Sequence of Tyrosyl-DNA phosphodiesterase 2 (O95551 whole entry): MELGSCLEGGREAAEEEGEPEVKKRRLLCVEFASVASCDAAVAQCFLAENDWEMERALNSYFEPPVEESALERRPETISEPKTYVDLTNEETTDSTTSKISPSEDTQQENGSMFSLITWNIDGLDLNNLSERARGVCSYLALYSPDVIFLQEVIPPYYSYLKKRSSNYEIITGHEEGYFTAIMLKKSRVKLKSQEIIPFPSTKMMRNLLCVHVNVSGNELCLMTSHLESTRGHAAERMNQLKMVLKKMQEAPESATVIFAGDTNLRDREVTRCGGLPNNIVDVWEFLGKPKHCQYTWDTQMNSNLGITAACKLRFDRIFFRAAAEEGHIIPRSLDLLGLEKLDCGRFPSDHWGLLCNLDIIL

Paired box protein Pax-8 = Paired box protein Pax-8 (Homo sapiens, UniProt Q06710); experiment: inhibitors of PAX8-driven TPO luciferase reporter, dose response, RMG-I cells, cherry-pick (AID 687027); type: functional, cell-based;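 also: luciferase reporter driven by Pax8 target thyroperoxidase promoter measured by SteadyGlo luminescence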
Sequence of Paired box protein Pax-8 (Q06710 whole entry): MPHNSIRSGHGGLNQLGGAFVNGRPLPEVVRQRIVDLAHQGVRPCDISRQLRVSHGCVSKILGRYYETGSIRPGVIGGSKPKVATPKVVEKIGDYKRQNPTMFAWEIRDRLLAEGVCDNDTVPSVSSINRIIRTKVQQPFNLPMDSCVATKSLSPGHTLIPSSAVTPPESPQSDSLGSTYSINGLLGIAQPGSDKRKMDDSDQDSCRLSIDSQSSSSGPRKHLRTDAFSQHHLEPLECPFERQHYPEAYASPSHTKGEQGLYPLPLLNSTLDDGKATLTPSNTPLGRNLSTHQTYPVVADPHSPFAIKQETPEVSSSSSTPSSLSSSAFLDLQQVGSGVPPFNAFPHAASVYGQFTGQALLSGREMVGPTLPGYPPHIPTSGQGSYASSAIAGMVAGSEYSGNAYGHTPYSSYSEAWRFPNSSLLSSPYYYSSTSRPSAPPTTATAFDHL

[4] = IOSE-T80 ovarian epithelial cell cytotoxicity, dose response, cytotoxicity control for PAX8 inhibitor project, plate reader, dry powder samples (AID 743045); type: functional, cell-based
[5] = A2780 ovarian cancer cell cytotoxicity, dose response, cytotoxicity control, plate reader, dry powder samples (AID 743046); type: functional, cell-based
[6] = NIH:OVCAR-3 ovarian cancer cell cytotoxicity, dose response, PAX8 inhibitor project, plate reader, dry powder samples (AID 743044); type: functional, cell-based
[7] = non-specific cell cytotoxicity, dose response, cytotoxicity control for PAX8 inhibitor project, plate reader, dry powder samples (AID 743021); type: functional, cell-based
[8] = target: Protein disulfide-isomerase (Homo sapiens, UniProt P07237); experiment: PDI inhibitors, insulin turbidity readout, confirmation, biochemical, dry powder samples, set 2 (AID 652146)
Sequence of Protein disulfide-isomerase (P07237 whole entry): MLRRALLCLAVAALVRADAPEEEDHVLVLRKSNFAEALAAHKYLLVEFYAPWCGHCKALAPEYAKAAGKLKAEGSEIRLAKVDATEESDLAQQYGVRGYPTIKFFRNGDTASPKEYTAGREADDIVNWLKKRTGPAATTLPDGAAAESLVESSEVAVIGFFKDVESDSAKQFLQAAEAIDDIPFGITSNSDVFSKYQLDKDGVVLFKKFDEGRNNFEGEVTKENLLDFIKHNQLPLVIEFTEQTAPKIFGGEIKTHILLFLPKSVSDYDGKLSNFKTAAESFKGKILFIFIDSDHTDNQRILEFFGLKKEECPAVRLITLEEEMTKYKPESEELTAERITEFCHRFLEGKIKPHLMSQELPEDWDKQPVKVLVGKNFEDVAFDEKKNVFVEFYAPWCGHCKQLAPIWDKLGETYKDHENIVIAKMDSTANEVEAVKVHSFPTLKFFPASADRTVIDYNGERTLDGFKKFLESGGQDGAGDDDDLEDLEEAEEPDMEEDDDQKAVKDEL

- IC50 (Hexokinase HKDC1): 12.9 µM (active)
- AC50 [1]: 8.42 µM (active)
- IC50 (Genome polyprotein): 14.9 µM (active)
- AC50 (Caspase-6): 20.7 µM (active)
- AC50 [2]: > 20 µM (inactive)
- IC50 [3]: > 128 µM (inactive)
Structure (SMILES): Cc1ccc(C)c(-n2c3nc(=O)[nH]c(=O)c-3cc3cc([N+](=O)[O-])ccc32)c1
- CC50 (Vero): 14.5 µM (active)

Structure (SMILES): Cc1ccc(S(=O)(=O)Nc2ccc3c(c2)CC(=O)N([C@@H](C)CO)C[C@H](C)[C@@H](CN(C)Cc2ccc(Oc4ccccc4)cc2)O3)cc1
- AC50 (Paired box protein Pax-8): 4.67 µM (active)
- AC50 [4]: 26.3 µM (active)
- AC50 [5]: 38.6 µM (active)
- AC50 [6]: 19.8 µM (active)
- AC50 [7]: 55 µM (active)

- AC50 [8]: > 30 µM (inactive)
Structure (SMILES): CCOC(=O)C1(Cc2cccc(OC)c2)CCN(Cc2ccc(O)c(Cl)c2)CC1
